± gives the expanded uncertainty stated by the source.
What was measured:
[1] = excess molar enthalpy (molar enthalpy of mixing); xn = mol fraction of the nth substance listed; details: 298.15 K, 101 kPa, Liquid, Calvet calorimetry
[2] = 298.15 K; 101.33 kPa; Liquid; Vibrating tube method

CCCCNCCCC [dibutylamine] + CC(C)=O
excess molar enthalpy ([1]; x1 = 0.1101): 0.106 ± 0.00239 kcal/mol
excess molar enthalpy ([1]; x1 = 0.2103): 0.165 ± 0.00359 kcal/mol
excess molar enthalpy ([1]; x1 = 0.2999): 0.204 ± 0.0043 kcal/mol
excess molar enthalpy ([1]; x1 = 0.398): 0.22 ± 0.00478 kcal/mol
excess molar enthalpy ([1]; x1 = 0.4977): 0.224 ± 0.00478 kcal/mol
excess molar enthalpy ([1]; x1 = 0.6088): 0.206 ± 0.00454 kcal/mol
excess molar enthalpy ([1]; x1 = 0.6999): 0.181 ± 0.00382 kcal/mol
excess molar enthalpy ([1]; x1 = 0.79): 0.143 ± 0.00311 kcal/mol
excess molar enthalpy ([1]; x1 = 0.8913): 0.0827 ± 0.00191 kcal/mol

CCCNCCC [dipropylamine] + CCC(C)=O
excess molar enthalpy ([1]; x1 = 0.1042): 0.037 ± 0.000956 kcal/mol
excess molar enthalpy ([1]; x1 = 0.1978): 0.0605 ± 0.00143 kcal/mol
excess molar enthalpy ([1]; x1 = 0.3016): 0.0798 ± 0.00167 kcal/mol
excess molar enthalpy ([1]; x1 = 0.3852): 0.0884 ± 0.00191 kcal/mol
excess molar enthalpy ([1]; x1 = 0.495): 0.0949 ± 0.00215 kcal/mol
excess molar enthalpy ([1]; x1 = 0.5459): 0.0946 ± 0.00215 kcal/mol
excess molar enthalpy ([1]; x1 = 0.5908): 0.0937 ± 0.00215 kcal/mol
excess molar enthalpy ([1]; x1 = 0.6833): 0.0851 ± 0.00191 kcal/mol
excess molar enthalpy ([1]; x1 = 0.7647): 0.0715 ± 0.00167 kcal/mol
excess molar enthalpy ([1]; x1 = 0.8559): 0.0488 ± 0.0012 kcal/mol

CCCNCCC [dipropylamine] + CC(C)=O
excess molar enthalpy ([1]; x1 = 0.1063): 0.0652 ± 0.00143 kcal/mol
excess molar enthalpy ([1]; x1 = 0.2076): 0.113 ± 0.00239 kcal/mol
excess molar enthalpy ([1]; x1 = 0.3036): 0.14 ± 0.00311 kcal/mol
excess molar enthalpy ([1]; x1 = 0.3982): 0.151 ± 0.00335 kcal/mol
excess molar enthalpy ([1]; x1 = 0.4932): 0.153 ± 0.00335 kcal/mol
excess molar enthalpy ([1]; x1 = 0.5821): 0.147 ± 0.00311 kcal/mol
excess molar enthalpy ([1]; x1 = 0.6773): 0.129 ± 0.00287 kcal/mol
excess molar enthalpy ([1]; x1 = 0.7652): 0.104 ± 0.00215 kcal/mol
excess molar enthalpy ([1]; x1 = 0.8488): 0.0707 ± 0.00167 kcal/mol

CCCCNCCCC [dibutylamine] + CCCCCC(C)=O
excess molar enthalpy ([1]; x1 = 0.1114): 0.0206 ± 0.000478 kcal/mol
excess molar enthalpy ([1]; x1 = 0.2189): 0.0392 ± 0.000956 kcal/mol
excess molar enthalpy ([1]; x1 = 0.3057): 0.0519 ± 0.0012 kcal/mol
excess molar enthalpy ([1]; x1 = 0.4038): 0.0607 ± 0.00143 kcal/mol
excess molar enthalpy ([1]; x1 = 0.5087): 0.0664 ± 0.00143 kcal/mol
excess molar enthalpy ([1]; x1 = 0.5962): 0.0664 ± 0.00143 kcal/mol
excess molar enthalpy ([1]; x1 = 0.7053): 0.0612 ± 0.00143 kcal/mol
excess molar enthalpy ([1]; x1 = 0.8017): 0.0497 ± 0.0012 kcal/mol
excess molar enthalpy ([1]; x1 = 0.8891): 0.033 ± 0.000717 kcal/mol

CCC(C)=O [butanone]
mass density [2]: 799.969 ± 0.15 kg/m3

CCCNCCC [dipropylamine] + CCCC(C)=O
excess molar enthalpy ([1]; x1 = 0.1056): 0.0208 ± 0.000478 kcal/mol
excess molar enthalpy ([1]; x1 = 0.1981): 0.0368 ± 0.000956 kcal/mol
excess molar enthalpy ([1]; x1 = 0.3098): 0.0519 ± 0.0012 kcal/mol
excess molar enthalpy ([1]; x1 = 0.3988): 0.0621 ± 0.00143 kcal/mol
excess molar enthalpy ([1]; x1 = 0.5023): 0.0672 ± 0.00143 kcal/mol
excess molar enthalpy ([1]; x1 = 0.5922): 0.0679 ± 0.00143 kcal/mol
excess molar enthalpy ([1]; x1 = 0.6821): 0.0638 ± 0.00143 kcal/mol
excess molar enthalpy ([1]; x1 = 0.781): 0.0545 ± 0.0012 kcal/mol
excess molar enthalpy ([1]; x1 = 0.8693): 0.0382 ± 0.000956 kcal/mol

CCCCNCCCC [dibutylamine]
mass density [2]: 755.528 ± 0.16 kg/m3

CCCC(C)=O [pentan-2-one]
mass density [2]: 801.522 ± 0.24 kg/m3

CCCCNCCCC [dibutylamine] + CCC(C)=O
excess molar enthalpy ([1]; x1 = 0.1142): 0.0655 ± 0.00143 kcal/mol
excess molar enthalpy ([1]; x1 = 0.2078): 0.102 ± 0.00215 kcal/mol
excess molar enthalpy ([1]; x1 = 0.2985): 0.128 ± 0.00287 kcal/mol
excess molar enthalpy ([1]; x1 = 0.3978): 0.144 ± 0.00311 kcal/mol
excess molar enthalpy ([1]; x1 = 0.4956): 0.148 ± 0.00311 kcal/mol
excess molar enthalpy ([1]; x1 = 0.6001): 0.142 ± 0.00311 kcal/mol
excess molar enthalpy ([1]; x1 = 0.693): 0.126 ± 0.00263 kcal/mol
excess molar enthalpy ([1]; x1 = 0.7846): 0.0997 ± 0.00215 kcal/mol
excess molar enthalpy ([1]; x1 = 0.8802): 0.0645 ± 0.00143 kcal/mol

CCCNCCC [dipropylamine]
mass density [2]: 733.723 ± 0.25 kg/m3

CCCNCCC [dipropylamine] + CCCCCC(C)=O
excess molar enthalpy ([1]; x1 = 0.1145): 0.0112 ± 0.000478 kcal/mol
excess molar enthalpy ([1]; x1 = 0.212): 0.021 ± 0.000478 kcal/mol
excess molar enthalpy ([1]; x1 = 0.3072): 0.0282 ± 0.000717 kcal/mol
excess molar enthalpy ([1]; x1 = 0.4034): 0.0342 ± 0.000717 kcal/mol
excess molar enthalpy ([1]; x1 = 0.4993): 0.0387 ± 0.000956 kcal/mol
excess molar enthalpy ([1]; x1 = 0.6017): 0.0406 ± 0.000956 kcal/mol
excess molar enthalpy ([1]; x1 = 0.6872): 0.038 ± 0.000956 kcal/mol
excess molar enthalpy ([1]; x1 = 0.7868): 0.0327 ± 0.000717 kcal/mol
excess molar enthalpy ([1]; x1 = 0.8796): 0.0229 ± 0.000478 kcal/mol

CCCCCC(C)=O [2-heptanone]
mass density [2]: 811.162 ± 0.24 kg/m3

CCCCNCCCC [dibutylamine] + CCCC(C)=O
excess molar enthalpy ([1]; x1 = 0.1111): 0.0406 ± 0.000956 kcal/mol
excess molar enthalpy ([1]; x1 = 0.2106): 0.0684 ± 0.00143 kcal/mol
excess molar enthalpy ([1]; x1 = 0.3072): 0.0908 ± 0.00191 kcal/mol
excess molar enthalpy ([1]; x1 = 0.3973): 0.102 ± 0.00215 kcal/mol
excess molar enthalpy ([1]; x1 = 0.4942): 0.108 ± 0.00239 kcal/mol
excess molar enthalpy ([1]; x1 = 0.6052): 0.104 ± 0.00239 kcal/mol
excess molar enthalpy ([1]; x1 = 0.6999): 0.0937 ± 0.00215 kcal/mol
excess molar enthalpy ([1]; x1 = 0.7881): 0.0762 ± 0.00167 kcal/mol
excess molar enthalpy ([1]; x1 = 0.8848): 0.0485 ± 0.0012 kcal/mol

CC(C)=O [acetone]
mass density [2]: 785.094 ± 0.13 kg/m3
